Measured values reported in patent publication US5583142A, “Analgesic and nootropic drugs” (priority 1992, dated 1996).
Values joined by “and” are separate entries in the source; they are usually repeats but may differ in a detail not shown here. Equal values may be shown once. Read-outs that look alike come from different tables or passages of the source.

What was measured:
[1] = guinea-pig paw-pressure test; format: in vivo; details: for paw-pressure: guinea-pig, 20 mg/kg i.p.
Experimental: (§1) The analgesic action was detected in mouse, rat, guinea pig and dog. The mouse was subjected to hot plate and writhing tests; the rat to tail-flick and paw-pressure tests; the guinea pig to paw-pressure test only; the dog to the test described by Vainio et al. [J. Vet. Pharmacol. Ther., 12, 225-231 (1989)] using an electric stimulation. Consequently, the claimed compounds were tested with pain being induced by stimuli of different nature: thermal (hot plate and tail flick), chemical (writhing by acetic acid), mechanical (paw pressure) and electrical (cutaneous stimulation).
Effect of SM21 and PG9 in guineapig pawpressure test. *P < 0.01; P < 0.0
in comparison with saline controls. The number of guineapig is in […]

[2] = mouse rota-rod test (16 r.p.m.)
Description: All products tested to detect their antinociceptive activity had been previously tested by the rota-rod test to determine their maximum utilizable dose in analgesic tests. In fact, by this test it is possible to determine the highest dose of drug not impairing the normal performance of animals in a test that simultaneously evaluates motor coordination, equilibrium, resistance to fatigue, and muscle strength. This test is meant to evaluate the capability of mice to stay balanced on a rotating rod [cf. Vaught et al., Neuropharmacology, 24 (3) 211-216 (1985)].
The calculated doses were those used in the two analgesic tests on mice.

rat tail-flick test = format: in vivo; details: for tail-flick: 20 mg/kg i.p.
Experimental: as §1
(§2) As already mentioned, the claimed products were assayed also in rat by the paw-pressure and tail-flick tests.
(§3) Both tests were carried out with the max. doses not impairing the rats normal behaviour. […] The painful stimulus utilized in the paw-pressure test involved the animal consciousness to a much greater extent than the stimulus used in the tail-flick test, in fact, the type and anatomic localization of the latter mainly involved a spinal response.
(§4) Both tests on rats were carried out with the max. doses not altering the behaviour of the treated animals.
The test was performed using th

[3] = format: in vivo, mouse; details: for ANALGESIC ACTIVITY (degree of analgesia, latency on hot plate): max. dose not affecting mice behaviour; for analgesic effect (AUC up to 45 min) compared with reference analgesics: mouse hot plate, FIG. 5, always (s.c. and i.p.); for Efficacy as analgesic (Morphine = 100), AUC (Area Under Curve) / Efficacy as analgesic (Morphine = 100), M.E. (Maximum Analgesic Effect): in vivo
[4] = mouse acetic acid writhing test; format: in vivo; details: for efficacy in writhing test, in words / number of writhes / Efficacy as analgesic (Morphine = 100) / percent inhibition: mouse; for number of writhes / Efficacy as analgesic (Morphine = 100) / percent inhibition: 40 mg/kg s.c.; for Efficacy as analgesic (Morphine = 100) / percent inhibition: writhing; for ED50: sc, mouse writhing
Experimental: as §1
The claimed molecules, chosen as examples, were also assayed in mice by the writhing test (Table 4). The test is meant to evaluate the products capability to prevent mice writhes ensuing abdominal pains caused by i.p. injection of a 0.6% aqueous solution of acetic acid.
Acetic acid solution = 0.6% v/v.

in vivo = details: mouse, sc
Description: Potency, efficacy and toxicity of SM21, PG9 and SM32 in comparison with
four principal reference analgesic drugs tested in mouse. As analgesic

rat paw-pressure test = format: in vivo; details: for paw-pressure: 20 mg/kg i.p.
Experimental: as §1, §2, §3, §4

[5] = paw-pressure test in rats with a lesion in the nucleus basalis magnocellularis (NBM); format: in vivo, rat; details: 30 mg/kg i.p.
Description: 3. […] In fact, as known, the magnocellular basal nucleus destruction causes the degeneration of most central cholinergic system.

[6] = mouse; FIG. 7 and FIG. 7 bis
Experimental: In FIGS. 7 and 7 bis vertical lines give s.e. mean. Each column represents the mean of 6-10 mice. SM-21 maleate, PG-9 maleate, SM-32 oxalate, cocaine HCl, amphetamine sulphate and caffeine were administered 15 min before test.

[7] = test system: presynaptic muscarinic autoreceptor; details: cited from earlier work
[8] = 40 mg/kg s.c., 15 min after treatment
[9] = 40 mg/kg s.c., 30 min after treatment
[10] = 40 mg/kg s.c., 45 min after treatment
[11] = 50 mg/kg s.c., 15 min after treatment
[12] = 50 mg/kg s.c., 30 min after treatment
[13] = 50 mg/kg s.c., 45 min after treatment
[14] = mouse, 40 mg/kg i.p., 15 min after treatment
[15] = mouse, 40 mg/kg i.p., 30 min after treatment
[16] = mouse, 40 mg/kg i.p., 45 min after treatment
[17] = mouse, 40 mg/kg s.c., 15 min after treatment
[18] = mouse, 40 mg/kg s.c., 30 min after treatment
[19] = mouse, 40 mg/kg s.c., 45 min after treatment

CC(C(=O)O[C@H]1C[C@H]2CC[C@@H](C1)N2C)c1ccc(Br)cc1 (stereo partly drawn) [PG-9, 3α-Tropanyl 2-(p-bromophenyl)-propionate]
analgesic activity in guinea pig, in words ([1]; guinea pig): active in guinea pig
paw-pressure ([1]; 15 min after treatment): 94.6 ± 4.4 g
paw-pressure ([1]; 30 min after treatment): 83.0 ± 6.8 g
paw-pressure ([1]; 45 min after treatment): 42.8 ± 5.6 g
rota-rod performance (number of falls in 30 s) [2, 8]: 1.2 ± 0.5 falls in 30 s
rota-rod performance (number of falls in 30 s) [2, 9]: 0.8 ± 0.4 falls in 30 s
rota-rod performance (number of falls in 30 s) [2, 10]: 1.3 ± 0.5 falls in 30 s
rota-rod performance (number of falls in 30 s) ([2]; 45 mg/kg s.c., 15 min after treatment): 2.4 ± 0.8 falls in 30 s
rota-rod performance (number of falls in 30 s) ([2]; 45 mg/kg s.c., 30 min after treatment): 1.3 ± 0.5 falls in 30 s
rota-rod performance (number of falls in 30 s) ([2]; 45 mg/kg s.c., 45 min after treatment): 0.8 ± 0.4 falls in 30 s
rota-rod performance (number of falls in 30 s) [2, 11]: 2.2 ± 0.6 falls in 30 s
rota-rod performance (number of falls in 30 s) [2, 12]: 2.7 ± 0.6 falls in 30 s
rota-rod performance (number of falls in 30 s) [2, 13]: 2.8 ± 0.4 falls in 30 s
activity in tail-flick test, in words (rat tail-flick test): inactive
tail-flick (rat tail-flick test; 15 min after treatment): 3.3 ± 0.2 s
tail-flick (rat tail-flick test; 30 min after treatment): 2.9 ± 0.4 s
tail-flick (rat tail-flick test; 45 min after treatment): 3.0 ± 0.3 s
ANALGESIC ACTIVITY (degree of analgesia, latency on hot plate) [3]: ++++ (Latency above 35" ++++-)
analgesic activity in mouse, in words ([3]; mouse): active in mouse
analgesic effect (AUC up to 45 min) compared with reference analgesics [3]: always more active than all reference analgesics including morphine
Efficacy as analgesic (Morphine = 100), AUC (Area Under Curve) ([3]; mouse): 123
Efficacy as analgesic (Morphine = 100), M.E. (Maximum Analgesic Effect) ([3]; mouse): 106
hot-plate latency [3, 14]: 42.5 ± 2.5 s
hot-plate latency [3, 15]: 39.7 ± 2.1 s
hot-plate latency [3, 16]: 26.7 ± 3.5 s
hot-plate latency [3, 17]: 39.3 ± 3.4 s
hot-plate latency [3, 18]: 35.1 ± 2.8 s
hot-plate latency [3, 19]: 33.3 ± 2.6 s
efficacy in writhing test, in words [4]: less efficacious than ketorolac, are more efficacious than morphine
number of writhes [4]: 6.1 ± 1.6
Efficacy as analgesic (Morphine = 100) [4]: 110
percent inhibition [4]: 82.2%
ED50 [4]: 16.3 mg/kg and 34.8 µmol/kg
LD50 (in vivo): 373 µmol/kg
activity in paw-pressure test, in words (rat paw-pressure test): inactive in rat
paw-pressure (rat paw-pressure test; 15 min after treatment): 62.2 ± 6.0 g
paw-pressure (rat paw-pressure test; 30 min after treatment): 62.4 ± 4.8 g
paw-pressure (rat paw-pressure test; 45 min after treatment): 62.8 ± 4.2 g

CCC(Oc1ccc(Cl)cc1)C(=O)O[C@H]1C[C@H]2CC[C@@H](C1)N2C (stereo partly drawn) [SM-21, 3α-Tropanyl 2-(p-chlorophenoxy)-butyrate]
paw-pressure ([1]; 15 min after treatment): 92.8 ± 4.0 g
paw-pressure ([1]; 30 min after treatment): 110.0 ± 6.6 g
paw-pressure ([1]; 45 min after treatment): 64.0 ± 6.2 g
paw-pressure ([5]; lesioned (NBM) rats, 15 min after treatment): 75.1 ± 5.8 g
paw-pressure ([5]; lesioned (NBM) rats, 30 min after treatment): 68.3 ± 4.9 g
paw-pressure ([5]; lesioned (NBM) rats, 45 min after treatment): 67.2 ± 3.9 g
paw-pressure ([5]; naive rats, 15 min after treatment): 109.6 ± 4.8 g
paw-pressure ([5]; naive rats, 30 min after treatment): 87.5 ± 5.2 g
paw-pressure ([5]; naive rats, 45 min after treatment): 67.8 ± 4.4 g
paw-pressure ([5]; sham rats, 15 min after treatment): 104.9 ± 4.6 g
paw-pressure ([5]; sham rats, 30 min after treatment): 93.4 ± 5.3 g
paw-pressure ([5]; sham rats, 45 min after treatment): 63.9 ± 5.1 g
rota-rod performance (number of falls in 30 s) ([2]; 30 mg/kg s.c., 15 min after treatment): 1.9 ± 0.3 falls in 30 s
rota-rod performance (number of falls in 30 s) ([2]; 30 mg/kg s.c., 30 min after treatment): 1.5 ± 0.5 falls in 30 s
rota-rod performance (number of falls in 30 s) ([2]; 30 mg/kg s.c., 45 min after treatment): 1.2 ± 0.5 falls in 30 s
rota-rod performance (number of falls in 30 s) [2, 8]: 1.6 ± 0.6 falls in 30 s
rota-rod performance (number of falls in 30 s) [2, 9]: 1.2 ± 0.4 falls in 30 s
rota-rod performance (number of falls in 30 s) [2, 10]: 1.2 ± 0.4 falls in 30 s
rota-rod performance (number of falls in 30 s) [2, 11]: 2.2 ± 0.4 falls in 30 s
rota-rod performance (number of falls in 30 s) [2, 12]: 2.6 ± 0.5 falls in 30 s
rota-rod performance (number of falls in 30 s) [2, 13]: 2.4 ± 0.5 falls in 30 s
rota-rod performance (number of falls in 30 s) ([2]; 60 mg/kg s.c., 15 min after treatment): 3.5 ± 0.5 falls in 30 s
rota-rod performance (number of falls in 30 s) ([2]; 60 mg/kg s.c., 30 min after treatment): 4.3 ± 0.4 falls in 30 s
rota-rod performance (number of falls in 30 s) ([2]; 60 mg/kg s.c., 45 min after treatment): 4.4 ± 0.6 falls in 30 s
activity in tail-flick test, in words (rat tail-flick test): active
tail-flick (rat tail-flick test; 15 min after treatment): 3.6 ± 0.2 s
tail-flick (rat tail-flick test; 30 min after treatment): 4.6 ± 0.4 s
tail-flick (rat tail-flick test; 45 min after treatment): 4.9 ± 0.4 s
ANALGESIC ACTIVITY (degree of analgesia, latency on hot plate) [3]: ++++ (Latency above 35" ++++-)
analgesic effect (AUC up to 45 min) compared with reference analgesics [3]: always more active than all reference analgesics including morphine
Efficacy as analgesic (Morphine = 100), AUC (Area Under Curve) ([3]; mouse): 111
Efficacy as analgesic (Morphine = 100), M.E. (Maximum Analgesic Effect) ([3]; mouse): 111
hot-plate latency [3, 14]: 36.7 ± 2.1 s
hot-plate latency [3, 15]: 32.0 ± 2.2 s
hot-plate latency [3, 16]: 25.9 ± 2.7 s
hot-plate latency [3, 17]: 38.9 ± 2.9 s
hot-plate latency [3, 18]: 31.3 ± 2.5 s
hot-plate latency [3, 19]: 29.4 ± 3.3 s
efficacy in writhing test, in words [4]: slightly inferior to morphine
number of writhes [4]: 11.4 ± 1.6
Efficacy as analgesic (Morphine = 100) [4]: 90
percent inhibition [4]: 67.3%
ED50 [4]: 21.5 mg/kg and 47.4 µmol/kg
LD50 (in vivo): 883 µmol/kg
activity in paw-pressure test, in words (rat paw-pressure test): almost equivalent analgesia
paw-pressure (rat paw-pressure test; 15 min after treatment): 93.1 ± 4.0 g
paw-pressure (rat paw-pressure test; 30 min after treatment): 93.4 ± 5.4 g
paw-pressure (rat paw-pressure test; 45 min after treatment): 92.3 ± 6.4 g

CC(N)Cc1ccccc1 (centres unmarked) [amphetamine]
motor activity and curiosity (exploration activity) [6]: remarkably increase the motor activity

CCCCN1CCCCC1C(=O)Nc1c(C)cccc1C (centres unmarked) [bupivacaine]
selectivity and efficacy as antagonists of the presynaptic muscarinic autoreceptor [7]: little selective as well as little efficacious

Cn1c(=O)c2c(ncn2C)n(C)c1=O [caffeine]
motor activity and curiosity (exploration activity) [6]: remarkably increase the motor activity

Cc1cccc(C)c1OCC(C)N (centres unmarked) [mexyletine]
selectivity and efficacy as antagonists of the presynaptic muscarinic autoreceptor [7]: little selective as well as little efficacious

CCN(CC)CCNC(=O)c1ccc(N)cc1 [procainamide]
selectivity and efficacy as antagonists of the presynaptic muscarinic autoreceptor [7]: little selective as well as little efficacious

CCN(CC)CCOC(=O)c1ccc(N)cc1 [procaine]
selectivity and efficacy as antagonists of the presynaptic muscarinic autoreceptor [7]: little selective as well as little efficacious
